Here are results for one compound from ChEMBL document CHEMBL4715916, “Synthesis and biological evaluation of a ring analogs of the selective CB2 inverse agonist SMM-189” (Bioorg Med Chem, 2021).

Assay [1] addresses T1, Cannabinoid receptor 2 (Homo sapiens, UniProt P34972). Nature of the assay: Inverse agonist activity at cannabinoid CB2 receptor in human U2OS cells assessed as induction of beta-arrestin recruitment using CCF4/AM as substrate preincubated for 5 hrs followed by substrate addition and measured after 2 hrs by Tango assay. The format is cell-based.
Assay [2] has as its system IMhu. In words: Effect on LPS-stimulated microglia polarization in human IMhu cells assessed as decrease in CD16 expression at 35 uM after 24 hrs by cell polarization assay. It counts as functional, cell-based.
The subject of assay [3] is C8-B4. In words: Effect on LPS-stimulated microglia polarization in mouse C8-B4 cells assessed as decrease in CD16/32 expression at 20 uM after 24 hrs by cell polarization assay. It counts as functional, cell-based.
For assay [4], the system named is IMhu. In words: Induction of morphological changes in LPS-induced human IMhu cells assessed as elongated projection formation at 10 uM after 24 hrs by DAPI/Phalloidin staining based fluorescence microscopic analysis. The format is functional.
Assay [5] has as its target T2, Cannabinoid receptor 1 (Homo sapiens, UniProt P21554). Nature of the assay: Inverse agonist activity at human recombinant cannabinoid CB1 receptor expressed in HEK cells transfected with CNG assessed as increase in cAMP level measured up to 1 hr by ACTOne membrane potential dye based assay. Conditions: time hrs <=1. The format is functional, cell-based.
Assay [6] has as its target T1, Cannabinoid receptor 2. In words: Inverse agonist activity at human recombinant cannabinoid CB2 receptor expressed in HEK cells transfected with CNG assessed as increase in cAMP level measured up to 1 hr by ACTOne membrane potential dye based assay. The format is functional, cell-based.
For assay [7], the system named is IMhu. In words: Effect on LPS-stimulated microglia polarization in human IMhu cells assessed as decrease in CD68 expression at 35 uM after 24 hrs by cell polarization assay. The format is functional, cell-based.
Assay [8] deals with C8-B4. Nature of the assay: Effect on LPS-stimulated microglia polarization in mouse C8-B4 cells assessed as decrease in CD68 expression at 20 uM after 24 hrs by cell polarization assay. It counts as functional, cell-based.
For assay [9], the system named is IMhu. Nature of the assay: Effect on LPS-stimulated microglia polarization in human IMhu cells assessed as increase in CD204 expression at 35 uM after 24 hrs by cell polarization assay. The format is functional, cell-based.
Assay [10] deals with T1, Cannabinoid receptor 2. Nature of the assay: Inverse agonist activity at cannabinoid CB2 receptor in human U2OS cells assessed as emission ratio using CCF4/AM as substrate preincubated for 5 hrs followed by substrate addition and measured after 2 hrs by Tango assay. The settings on record: filed as inverse agonist, time 7.0 hrs. The format is cell-based.
Assay [11] has as its system C8-B4. Nature of the assay: Effect on LPS-stimulated microglia polarization in mouse C8-B4 cells assessed as increase in CD204 expression at 20 uM after 24 hrs by cell polarization assay. It counts as functional, cell-based.
Assay [12] concerns the target T2, Cannabinoid receptor 1. Nature of the assay: Displacement of [3H]-CP55940 from human recombinant cannabinoid CB1 receptor expressed in HEK cell membranes incubated for 1.5 hrs by liquid scintillation counting method. Further details: species or system Cell membrane.
In assay [13] the target is T1, Cannabinoid receptor 2. Nature of the assay: Displacement of [3H]-CP55940 from human recombinant cannabinoid CB2 receptor expressed in HEK cell membranes incubated for 1.5 hrs by liquid scintillation counting method. Details: species or system Cell membrane.
Assay [14] concerns IMhu. In words: Induction of morphological changes in LPS-induced human IMhu cells assessed as ramified cell at 10 uM after 24 hrs by DAPI/Phalloidin staining based fluorescence microscopic analysis. It counts as functional.
For assay [15], the target named is T1, Cannabinoid receptor 2. Nature of the assay: Inverse agonist activity at human recombinant cannabinoid CB2 receptor expressed in HEK cells transfected with CNG assessed as increase in cAMP level measured up to 1 hr by ACTOne membrane potential dye based assay relative to control. It counts as functional, cell-based. The settings on record: filed as inverse agonist, time hrs <=1.

In assay [16] the test system is IMhu. In words: Cytoprotective activity in human IMhu cells assessed as reduction in LPS-induced ROS generation at 10 uM after 50 to 1440 mins by fluorescence based assay. It counts as functional, cell-based. Conditions: time 50-1440 min.
Assay [17] concerns IMhu. Nature of the assay: Induction of morphological changes in LPS-induced human IMhu cells assessed as small cell body at 10 uM after 24 hrs by DAPI/Phalloidin staining based fluorescence microscopic analysis. It counts as functional.
Assay [18] addresses T2, Cannabinoid receptor 1. Nature of the assay: Inverse agonist activity at cannabinoid CB1 receptor in human U2OS cells assessed as emission ratio using CCF4/AM as substrate preincubated for 5 hrs followed by substrate addition and measured after 2 hrs by Tango assay. Conditions: time 7.0 hrs. The format is cell-based.
Assay [19] has as its target T2, Cannabinoid receptor 1. Nature of the assay: Inverse agonist activity at human recombinant cannabinoid CB1 receptor expressed in HEK cells transfected with CNG assessed as increase in cAMP level measured up to 1 hr by ACTOne membrane potential dye based assay relative to control. Conditions: time hrs <=1. It counts as functional, cell-based.
Assay [20] deals with IMhu. Nature of the assay: Effect on LPS-stimulated microglia polarization in human IMhu cells assessed as increase in CD206 expression at 35 uM after 24 hrs by cell polarization assay. The format is functional, cell-based.
The species named for assay [21] is Homo sapiens. In words: Selectivity ratio of Ki for displacement of [3H]-CP55940 from human recombinant cannabinoid CB1 receptor expressed in HEK cell membranes to displacement of [3H]-CP55940 from human recombinant cannabinoid CB2 receptor expressed in HEK cell membranes.
The subject of assay [22] is IMhu. In words: Inhibition of cell migration in LPS-induced human IMhu cells at 10 uM after 24 hrs by scratch assay. It counts as functional.
The target in assay [23] is T2, Cannabinoid receptor 1. Nature of the assay: Inverse agonist activity at cannabinoid CB1 receptor in human U2OS cells assessed as induction of beta-arrestin recruitment using CCF4/AM as substrate preincubated for 5 hrs followed by substrate addition and measured after 2 hrs by Tango assay. The format is cell-based. The settings on record: time 7.0 hrs.
Assay [24] deals with C8-B4. In words: Effect on LPS-stimulated microglia polarization in mouse C8-B4 cells assessed as increase in CD206 expression at 20 uM after 24 hrs by cell polarization assay. The format is functional, cell-based.

Each structure is given as a SMILES string. Calls of active or inactive are those of the source. The rule behind the calls is not given here.

T2 sequence (P21554 whole entry): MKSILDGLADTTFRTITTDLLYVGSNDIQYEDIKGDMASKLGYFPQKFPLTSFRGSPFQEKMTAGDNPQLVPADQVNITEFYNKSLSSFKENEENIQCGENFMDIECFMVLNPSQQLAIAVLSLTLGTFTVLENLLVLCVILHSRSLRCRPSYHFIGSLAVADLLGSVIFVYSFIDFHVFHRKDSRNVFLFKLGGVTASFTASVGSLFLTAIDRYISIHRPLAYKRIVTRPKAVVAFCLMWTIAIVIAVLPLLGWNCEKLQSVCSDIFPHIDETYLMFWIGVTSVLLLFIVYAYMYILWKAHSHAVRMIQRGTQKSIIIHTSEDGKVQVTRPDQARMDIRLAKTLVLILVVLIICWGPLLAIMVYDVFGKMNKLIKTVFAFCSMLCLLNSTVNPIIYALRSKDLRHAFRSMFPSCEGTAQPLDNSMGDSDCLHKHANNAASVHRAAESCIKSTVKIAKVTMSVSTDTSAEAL
T1 sequence (P34972 whole entry): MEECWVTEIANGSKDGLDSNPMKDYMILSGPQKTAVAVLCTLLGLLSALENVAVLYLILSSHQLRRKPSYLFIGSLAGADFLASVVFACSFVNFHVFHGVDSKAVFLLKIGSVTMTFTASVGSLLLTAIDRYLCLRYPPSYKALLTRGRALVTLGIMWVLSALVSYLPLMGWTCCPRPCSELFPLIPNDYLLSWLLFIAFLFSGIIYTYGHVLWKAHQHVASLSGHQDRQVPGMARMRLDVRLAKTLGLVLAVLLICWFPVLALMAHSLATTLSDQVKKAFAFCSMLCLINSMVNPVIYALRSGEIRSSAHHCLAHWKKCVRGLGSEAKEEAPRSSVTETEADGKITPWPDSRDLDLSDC

Turning to `O=C(c1cc(O)c(-c2cccc(C(F)(F)F)c2)c(O)c1)c1cccs1`, the EC50 in assay [1] was 8.51 µM; in [6], 38.9 nM. Further, the result in assay [2], in [3], in [4], in assay [7], in assay [8] and in [9] was Active. For the same compound, the result in assay [11], in [14], in assay [16], in [17], in assay [20] and in [24] was Active. Further, the pEC50 result in assay [5] and in [23] was “inactive” in each case. Besides, the Ratio in [10] stood at 1.19. The Ki was above 10 µM in assay [12] and 154 nM in [13]. Besides, in [15], the Emax is 57.2%. The Ratio entry in [18] is “inactive”. Also, the Emax result in assay [19] is “inactive”. The Ratio Ki in assay [21] was above 64.9. Further, the inhibition entry in assay [22] is “Active”.
